Experiments:
Assay type in all cases: physicochemical
[1] = Absolute fluorescence quantum yield (integrating sphere); settings: in MeCN
Procedure: (§1) Fluorescent dyes were dissolved in the appropriate solvents to afford 1 mM solutions prior to spectroscopic analysis. A portion of 30 μL of a 1 mM solution was diluted by adding a selected solvent to a sample with a total volume of 3000 μL, affording a 1×10^−5 M solution. UV/Vis Absorption spectra were recorded in glass cuvettes on a UV-3600 Shimadzu spectrophotometer. Steady-state emission spectra were acquired in quartz cuvettes with optical path-lengths of 10 mm containing the solution being analyzed using a HORIBA Fluoromax4 spectrofluorometer, which was equipped with an integrating sphere for determining the absolute photoluminescence quantum yield.
(§2) Steady-state and time-resolved emission spectra for dyes 1-6, 7·2PF6 and 9·4PF6 were acquired using a HORIBA Fluorolog-3 spectrofluorometer, equipped with a time-correlated single photon counting (TCSPC) module (diode laser excitation at λ=375 nm) and an integrating sphere, which was used for absolute photo-luminescence quantum yield determinations. Picosecond time-resolved fluorescence measurements were recorded using a commercial direct-diode-pumped 100 kHz amplifier (Spirit 1040-HE, Spectra-Physics), producing a fundamental beam of 1040 nm (350 fs, 12 W) which was used to pump a non-collinear optical parametric amplifier (Spirit-NOPA, SpectraPhysics) capable of delivering tunable, high-repetition-rate pulses with pulse widths as short as sub-20 fs. Dyes 1-6, 7·2PF6 and 9·4PF6 were excited with 350 nm, 2 nJ laser pulses. Fluorescence was detected using a Hamamatsu C4780 Streakscope as previously described in the literature. Samples were prepared in 2-mm quartz cuvettes. All data were acquired in the single-photon-counting mode using the Hamamatsu HPD-TA software. The temporal resolution was approximately 2% of the sweep window. Single wavelength kinetic analysis was performed using a nonlinear least-squares fit to a sum of exponentials convoluted with an instrument response function. Visible and near-infrared femtosecond and nanosecond transient absorption (fsTA and nsTA, respectively) spectroscopies were performed following descriptions already recorded in the literature. The 330 nm, ˜100 fs pump pulses were generated at 1 μJ per pulse using a commercial collinear optical parametric amplifier (TOPAS-Prime, Light-Conversion, Ltd.); 414-nm pump pulses were obtained by second-harmonic generation of the 828 nm fundamental. The pump polarization was randomized using a commercial depolarizer (DPU-25-A, Thorlabs, Inc.) to eliminate any orientational dynamics resulting from the experiment. Spectra were collected on commercial spectrometers (customized Ultrafast Systems Helios and EOS spectrometers, for fsTA and nsTA, respectively) for each time window. All samples were stirred to avoid localized heating or degradation effects. The optical density was maintained at 0.6 for all samples.
Steady-state and time-resolved emission spectra for dyes 7·2PF6 and 9·4PF6 were acquired using a HORIBA Fluorolog-3 spectrofluorometer, equipped with a time-correlated single photon counting (TCSPC) module (diode laser excitation at =375 nm) and an integrating sphere, which was used for absolute photo-luminescence quantum yield determinations. Picosecond time-resolved fluorescence measurements were recorded using a commercial direct-diode-pumped 100 kHz amplifier (Spirit 1040-HE, Spectra-Physics), producing a fundamental beam of 1040 nm (350 fs, 12 W) which was used to pump a non-collinear optical parametric amplifier (Spirit-NOPA, SpectraPhysics) capable of delivering tunable, high-repetition-rate pulses with pulse widths as short as sub-20 fs. The samples 7·2PF6 and 9·4PF6 were excited with […], 2 nJ laser pulses. Fluorescence was detected using a Hamamatsu C4780 Streakscope as previously described in the literature.^71 Samples were prepared in 2-mm quartz cuvettes. All data were acquired in the single-photon-counting mode using the Hamamatsu HPD-TA software. […]

[2] = Transient absorption (fsTA/nsTA) and time-resolved fluorescence spectroscopy; settings: in MeCN; for non-radiative decay rate constant kNR: kNR = kobs(1 − ΦF); for radiative decay rate constant kR: kR = kobsΦF
Source text: The excited-state properties of these quadrupolar dyes were investigated using transient absorption (TA) spectroscopy. The TA data of dyes 1-4 and 6 in MeCN with lex=350 nm (FIGS. 9-12 and 15) show similar spectra with the same general electronic evolution, though with differing kinetics. Following excitation, strong excited-state absorption features appear between ˜450-500 nm along with a strong single peak in the near-infrared region, both of which are associated with Sn←S1 absorptions. The visible bands redshift over the following ˜100 ps, while the near-infrared band peaks first blueshift in the initial ˜10 ps before settling. These near-infrared absorption bands are similar to those observed^59,60 in extended bipyridinium compounds. Following these shifts, the excited states decay via emission with lifetimes between 3-4 ns as confirmed by time-resolved fluorescence (TRF) spectroscopy. The spectral shape of the transient species is generally maintained throughout their lifetimes, implying that the dynamics in each dye all occur on a single electronic excited state (S1) prior to emission. The spectral shifts at early times may arise due to excited-state symmetry breaking^77-78 in the quadrupolar dyes, wherein fluctuations in the instantaneous electrostatic environment afforded by the solvent transiently favor wavefunction localization on one side of the symmetric molecule, creating an excited state with a large dipole moment that is associated with the Stokes shift observed^79 in the fluorescence spectra. This localization can lead to changes in the transient absorption spectra as a result of the breakdown^42,80 of the Laporte rule. The shifts at longer times may arise from solvent or structural relaxation of the dyes.
as §2, with “samples. […]” for “samples.”

[3] = as above; settings: in PhMe
Solubility (qualitative) = settings: PF6− salt; e.g. MeCN, Me2CO, DMF
[4] = Absolute fluorescence quantum yield (integrating sphere); settings: 414 nm excitation
[5] = Steady-state UV/Vis absorption and fluorescence emission spectra; settings: THF, 10 μM
Procedure: Fluorescent dyes 1-6, 7·2PF6, 8·2PF6, 9·4PF6 and 9·4Cl were dissolved in THF (1-5), MeCN (6, 7·2PF6, 8·2PF6 and 9.4PF6) and H2O (9.4Cl), respectively, to afford 10 μM solutions prior to spectroscopic analysis. For comparison, their normalized (i) UV/Vis absorption (FIG. 2) and (ii) the fluorescence emission (FIG. 3) spectra of quadrupolar dyes are overlayed, displaying a large range of S1 absorbance and emission maxima, which rely highly on their quadrupolarity that is correlated to the electron-deficiency of the ARs.
as §1

SMILES | Quantum Yield (ΦF) [1] | rate constant k1 from TA data [2] | rate constant k2 from TA data [2] | rate constant k3 from TA data [2] | CT state decay back to the ground state ([2]; excited at 350 nm) [ns] | initially excited state (S1) decay time ([2]; excited at 350 nm) [ps] | non-radiative decay rate constant kNR ([2]; kobs = k1) | radiative decay rate constant kR [2] | triplet state lifetime (diffusional quenching-limited) ([3]; deaerated solution) [µs] | CT state decay to triplet state ([3]; excited at 350 nm) [ns] | S1 state decay time ([3]; excited at 350 nm) [ps] | excited-state (emissive) lifetime [2] [ns] | rate constant k4 from TA data [2] | non-radiative decay rate constant kNR [2] | solubility in polar organic solvents (Solubility (qualitative)) | ΦF in the solid-state (powder) [4] | UV absorption band centre [5] [nm] | emission λem [5] [nm]
CCCCCCCCOc1cc(-c2ccc([N+](=O)[O-])cc2)c(OCCCCCCCC)cc1-c1ccc([N+](=O)[O-])cc1 [Dye 5] | <0.005 | (4.3 ± 0.3 ps)^−1 (ps)^−1 | (28 ± 2 ps)^−1 (ps)^−1 | (102.7 ± 0.3 ns)^−1 (ns)^−1 | 102 | 4.3±0.3 | >(4 ps)^−1 (ps)^−1 | <(0.9 ns)^−1 (ns)^−1 | 1 | 18 | 7.9±0.3 | – | – | – | – | – | – | –
COc1cc2c(OC)cc1-c1cc[n+](cc1)Cc1ccc(cc1)C[n+]1ccc(cc1)-c1cc(OC)c(cc1OC)-c1cc[n+](cc1)Cc1ccc(cc1)C[n+]1ccc-2cc1 [9·4PF6] | 0.28 | (1.4 ± 0.3 ps)^−1 (ps)^−1 | (188 ± 4 ps)^−1 (ps)^−1 | (3.45 ± 0.01 ns)^−1 (ns)^−1 | – | – | – | (12.3 ± 0.2 ns)^−1 (ns)^−1 | – | – | – | 3.45±0.01 | (450 ± 70 ns)^−1 (ns)^−1 | (4.79 ± 0.03 ns)^−1 (ns)^−1 | readily soluble | 0.030±0.005 | – | –
CCCCCCCCOc1cc(-c2ccc(C(F)(F)F)cc2)c(OCCCCCCCC)cc1-c1ccc(C(F)(F)F)cc1 [Dye 2] | 0.56 | (1.4 ± 0.3 ps)^−1 (ps)^−1 | (85 ± 2 ps)^−1 (ps)^−1 | (3.16 ± 0.01 ns)^−1 (ns)^−1 | – | – | – | (5.64 ± 0.05 ns)^−1 (ns)^−1 | – | – | – | – | (150 ± 2 ns)^−1 (ns)^−1 | (7.2 ± 0.1 ns)^−1 (ns)^−1 | – | – | – | –
COc1cc(-c2ccncc2)c(OC)cc1-c1ccncc1 [Dye 6] | 0.63 | (0.6 ± 0.3 ps)^−1 (ps)^−1 | (52 ± 1 ps)^−1 (ps)^−1 | (4.05 ± 0.02 ns)^−1 (ns)^−1 | – | – | – | (6.43 ± 0.05 ns)^−1 (ns)^−1 | – | – | – | – | (163 ± 2 ns)^−1 (ns)^−1 | (11.0 ± 0.2 ns)^−1 (ns)^−1 | – | – | – | –
CCCCCCCCOc1cc(-c2ccc(F)cc2)c(OCCCCCCCC)cc1-c1ccc(F)cc1 [Dye 1] | 0.13 | (5.4 ± 0.6 ps)^−1 (ps)^−1 | (83 ± 7 ps)^−1 (ps)^−1 | (3.38 ± 0.03 ns)^−1 (ns)^−1 | – | – | – | – | – | – | – | – | (155 ± 3 ns)^−1 (ns)^−1 | (3.89 ± 0.02 ns)^−1 (ns)^−1 | – | – | 316 | 380
CCCCCCCCOc1cc(-c2ccc(C#N)cc2)c(OCCCCCCCC)cc1-c1ccc(C#N)cc1 [Dye 3] | 0.81 | (0.8 ± 0.3 ps)^−1 (ps)^−1 | (99 ± 2 ps)^−1 (ps)^−1 | (4.23 ± 0.02 ns)^−1 (ns)^−1 | – | – | – | (5.22 ± 0.03 ns)^−1 (ns)^−1 | – | – | – | – | (314 ± 1 ns)^−1 (ns)^−1 | (22.3 ± 0.6 ns)^−1 (ns)^−1 | – | – | – | –
CCCCCCCCOc1cc(-c2ccc(C(=O)OC)cc2)c(OCCCCCCCC)cc1-c1ccc(C(=O)OC)cc1 [Dye 4] | 0.78 | (0.7 ± 0.3 ps)^−1 (ps)^−1 | (132 ± 7 ps)^−1 (ps)^−1 | (3.80 ± 0.01 ns)^−1 (ns)^−1 | – | – | – | – | – | – | – | – | (210 ± 2 ns)^−1 (ns)^−1 | (17.3 ± 0.4 ns)^−1 (ns)^−1 | – | – | – | –
